# Test results reported in PubChem BioAssay AID449750 (Broad Institute, 2010).
# Calls of active or inactive are those of the source. No rule for the calls is given here.
# Assay: non-covalent RecA intein splicing inhibitors, dose response, biochemical, cell-free, fluorescence, secondary screen (AID 449750)
row,SMILES,AC50
1,COc1nc(N/N=C/c2ccc(-c3ccccc3[N+](=O)[O-])o2)nc(N2CCOCC2)n1,23.2 µM
2,Cc1sc2ncnc(Sc3nnnn3-c3ccccc3)c2c1C,> 38 µM (inactive)
3,CCOC(=O)/C(C#N)=C1/SC(C)C(=O)N1c1ccc(Br)cc1 (configuration not stated),> 38 µM (inactive)
4,O=C(Cc1cc(=O)[nH][nH]1)N/N=C/c1cccc2ccccc12,17.4 µM
5,CCc1ccc(NC(=O)CSc2ccc(-c3sc(C)nc3C)nn2)cc1,> 38 µM (inactive)
6,CC1(CC(=O)N/N=C/c2ccc(OCc3ccc(Cl)cc3Cl)cc2)OCCCO1,11.2 µM
7,O=C(CN1C(=O)S/C(=C\C=C\c2ccccc2)C1=O)Nc1ccccc1C(=O)O,14.1 µM
8,O=C(O)COc1ccc(/C=C2/SC(=S)N(Cc3ccccc3)C2=O)cc1,31.6 µM
9,O=C1C(Nc2ccccc2)=C/C(=N/S(=O)(=O)c2cccs2)c2ccccc21,0.226 µM
10,Cc1ccc(SCc2[nH]nc3c2C(c2ccc(C)o2)C(C#N)=C(N)O3)cc1 (configuration not stated),> 38 µM (inactive)
11,Cc1cccc(CS(=O)(=O)c2nnc([C@H](Cc3ccccc3)NC(=O)OC(C)(C)C)o2)c1,> 38 µM (inactive)
12,O=C(c1ccc(Cl)cc1)n1cnc2ccccc21,> 38 µM (inactive)
13,O=C(NC1CCCC1)C(c1ccc(F)cc1)N(Cc1ccc(Cl)cc1)C(=O)CCl (configuration not stated),5.55 µM
14,CC(C)(C)c1csc(Sc2ccc([N+](=O)[O-])cn2)n1,14.2 µM
15,Oc1[nH]c2ccc(Br)cc2c1N=NC(=S)N1CCOCC1,> 38 µM (inactive)
16,N#Cc1c(N2CCCCC2)nc(N)c2c(N)nc(SCC(=O)O)cc12,> 38 µM (inactive)
17,NC1=C(Br)C(=O)c2ccccc2C1=O,13.1 µM
18,Oc1cc(O)c2c(c1)O[C@H](c1ccc(O)c(O)c1)[C@@H](O)C2,> 38 µM (inactive)
19,COc1cc(/C=C2/C(=O)N(c3ccc([N+](=O)[O-])cc3)N=C2N2CCOCC2)ccc1O,31.5 µM
20,Cc1cc(C)c(S(=O)(=O)/N=C2\C=C(Nc3ccc(C(=O)O)cc3)C(=O)c3ccccc32)c(C)c1,0.669 µM
21,O=S(=O)(Nc1c(O)ccc2ccccc12)c1cccc2ccccc12,26.8 µM
22,Cc1cc(O)c(C(C)C)cc1N=Cc1ccccc1O,5.1 µM

row,SMILES,AC50
1,Cc1nn(-c2ccccc2)c(Cl)c1/C=C1\SC(=S)N(CCCCCC(=O)O)C1=O,14.8 µM
2,CS(=O)(=O)c1nc([N+](=O)[O-])nn1CCCc1ccccc1,10.7 µM
3,O=[N+]([O-])/C(C(Cl)=C(Cl)Cl)=C(/Sc1ccccc1)N1CCCCC1,> 38 µM (inactive)
4,CC1(C)CC(CCNC(=O)CCl)(c2ccccc2)CCO1 (configuration not stated),21.3 µM
5,COc1ccc(NC(=O)CSc2c3c(nc4cc(Cl)ccc24)CCCC3)cc1OC,31.7 µM
6,COc1ccccc1N1C(=O)Cc2ccccc2C1=O,> 38 µM (inactive)
7,Cc1ccc(Sc2ncnc3onc(C)c23)cc1,> 38 µM (inactive)
8,CC(OC(=O)c1cc(O)c2ccccc2c1O)C(=O)Nc1ccc(C(N)=O)cc1 (configuration not stated),10.1 µM
9,O=c1[nH]c2ccccc2n2c(-c3ccccc3)nnc12,22.5 µM
10,O=C1C=C(NCCN2CCOCC2)C(=O)c2cnccc21,1.54 µM
11,COc1cc(Br)c(C(=O)c2nccc3cc(OC)c(OC)cc23)cc1OC,6.24 µM
12,Nc1ccc2nc[nH]c2c1,10.6 µM
13,CCCCCCCCCCOC(=O)Cn1c(COc2ccccc2)[n+](C)c2ccccc21,7.97 µM
14,O=C1C(=O)c2ccccc2-c2ccccc21,16.8 µM
15,COc1cc(Br)c(C2C(C#N)=C(N)Oc3n[nH]c(-c4cccnc4)c32)cc1OC (configuration not stated),34.5 µM
16,O=C(OCn1ncc(Cl)c(Cl)c1=O)c1ccc(C(F)(F)F)cc1,3.99 µM
17,CCOc1cc(CNc2ccc3cn[nH]c3c2)ccc1OC,12.7 µM
18,Cc1ccc2nc(N/N=C\c3ccc([N+](=O)[O-])o3)nc(-c3ccccc3)c2c1,> 38 µM (inactive)
19,CSc1ccc(C(c2c(C)[nH][nH]c2=O)c2c(C)[nH][nH]c2=O)cc1,7.2 µM
20,CCc1ccc(Nc2n[n+](-c3ccccc3)c(-c3c(Cl)cccc3Cl)s2)cc1,8.26 µM
21,O=C1NC(c2ccc(-c3ccccc3[N+](=O)[O-])o2)C(C(=O)c2ccc(F)cc2)C(O)(C(F)(F)F)N1 (configuration not stated),34.4 µM
22,O=C(c1ccc(N2CCN(CCO)CC2)nc1)N1CCOCC1,> 38 µM (inactive)

row,SMILES,AC50
1,CC(=O)c1cccc(NC(=O)CSc2ncc(C(=O)Nc3ccccc3)c(=O)n2C)c1,> 12 µM (inactive)
2,COC(=O)c1c(NC(=O)/C=C/C(=O)O)sc(C)c1-c1ccc(C)c(C)c1,26.5 µM
3,COc1ccc(C(C[N+](=O)[O-])c2c(C)[nH]n(-c3ccccc3)c2=O)cc1 (configuration not stated),2.8 µM
4,CN(C(=O)c1ccc(S(=O)(=O)c2cccc(Cl)c2)c([N+](=O)[O-])c1)C1CCCCC1,13.7 µM
5,CCc1ccc(S(=O)(=O)/N=C2\C=C(NS(=O)(=O)c3ccccc3)C(=O)c3ccccc32)cc1,4.45 µM
6,Cc1ccc(S(=O)(=O)/N=C2\C=C(Nc3cccc(C(=O)O)c3)C(=O)c3ccccc32)cc1,0.412 µM
7,CCNc1ccccc1CP(=O)(c1ccccc1)c1ccccc1O (configuration not stated),22.6 µM
8,COC(=O)C(C#N)C(c1cccnc1)c1c(C)[nH][nH]c1=O (configuration not stated),> 38 µM (inactive)
9,O=C(CCN1C(=O)/C(=C\c2ccccc2F)SC1=S)Nc1ccc(C(=O)O)c(O)c1,14.7 µM
10,O=S(=O)(Nc1ccc(O)c2ccccc12)c1ccc(OC(F)(F)F)cc1,0.779 µM
11,Cc1c(C#N)c(NC(=O)CCl)n(Cc2ccc(F)cc2)c1C,3.69 µM
12,Cc1cccc(Cn2nnc3c2C(=O)c2ccccc2C3=O)c1,28.7 µM
13,CCN(CC)c1ccc2c(c1)CCCN2,> 12 µM (inactive)
14,CCOC(=O)C1=C(c2ccccc2)NC(N)=NC1c1ccc(OCc2ccc(Cl)cc2)c(OC)c1 (configuration not stated),10.2 µM
15,O=[N+]([O-])c1cc([N+](=O)[O-])c2oc(-c3ccccc3)c(Br)c2c1O,2.04 µM
16,CC(C)c1ccc(S(=O)(=O)/N=C2\C=C(NS(=O)(=O)c3ccccc3)C(=O)c3ccccc32)cc1,6.05 µM
17,O=C(CS(=O)c1ccc(C(F)(F)F)cc1[N+](=O)[O-])Oc1ccccc1 (configuration not stated),> 38 µM (inactive)
18,CCN(CC)CCNC(=O)c1ccc2c(c1NCCO)C(=O)c1ccccc1C2=O,13.1 µM
19,CN(CCC#N)C(=O)Cn1nc(Cc2ccncc2)c2ccccc2c1=O,> 38 µM (inactive)
20,Cc1ccc2nc(-c3cccs3)oc(=O)c2c1,> 38 µM (inactive)
21,Cc1ccc(-c2cc(=O)[nH][nH]2)c(C)c1,34.3 µM
22,O=C1C(Cl)=C(N2CCOCC2)C(=O)N1c1ccc(Br)cc1,> 38 µM (inactive)

row,SMILES,AC50
1,Cc1ccc(NC2=C(NCCO)C(=O)c3ccccc3C2=O)cc1,20.3 µM
2,O=C(CCl)Nc1cn(-c2ccccc2)nc1-c1ccccc1,7.77 µM
3,N#CC1=C(N)N(c2ccccc2)C(c2cccc([N+](=O)[O-])c2)C1(C#N)C#N (configuration not stated),> 38 µM (inactive)
4,CCN(CCN(C)C)C(=O)c1ccc2c(c1NCCO)C(=O)c1ccccc1C2=O,> 38 µM (inactive)
5,O=C(Oc1ccccc1N1C(=O)CCC1=O)c1ccco1,> 38 µM (inactive)
6,O=C(O)C1Nc2c(O)cc(Cl)c([N+](=O)[O-])c2C2C=CCC12 (configuration not stated),10.9 µM
7,O=C1C(Nc2cccc(O)c2)=C(N2CCCCC2)C(=O)c2ccccc21,2.93 µM
8,CCOc1ccc(C(c2c(C)[nH][nH]c2=O)c2c(C)[nH][nH]c2=O)cc1OC,6.7 µM
9,Cc1cccc(Cn2ncc(Cl)c(Cl)c2=O)c1,18 µM
10,COc1cc(C(C(=O)NC2CCCCC2)N(CCN2CCOCC2)C(=O)C2COc3ccccc3O2)cc(OC)c1OC (configuration not stated),> 38 µM (inactive)
11,O=C(Nc1ccccc1)NN(C(=O)CCl)c1ccccc1,6.12 µM
12,CCN1CCN(c2c(Cl)cccc2NC(=O)c2ccc3c(c2)OCCO3)CC1,> 38 µM (inactive)
13,Nc1c(-c2ccccc2)c(CSc2nc3ccccc3[nH]2)nn1-c1cccc(Cl)c1,> 38 µM (inactive)
14,CCc1cccc(NC(=O)CSCc2cc(=O)[nH][nH]2)c1,27.7 µM
15,O=C(NC1=C(Nc2ccc(F)cc2)C(=O)c2ccccc2C1=O)c1ccc(Cl)cc1,13.6 µM
16,O=C1/C(=C/Nc2ccc3c(c2)OCO3)CCc2ccccc21,4 µM
17,CC(=O)Nc1ccc(NC(=O)c2nc(S(=O)(=O)Cc3cccc(C)c3)ncc2Cl)cc1,> 38 µM (inactive)
18,COC(=O)[C@@H]1C[C@]2(OC(=O)c3ccccc3)C=CC(=O)C[C@@H]2N1C(=O)OCc1ccccc1,24.5 µM
19,Cc1ccccc1-c1cc2c(nn1)-c1ccccc1C2=O,8.26 µM
20,COc1ccc(N(C(=O)COc2cccc(C)c2)S(=O)(=O)c2ccc(C)cc2)cc1,> 38 µM (inactive)
21,COc1ccc(C2C(O)C(c3c[nH]c4ccccc34)=NN2C(=O)CCl)cc1 (configuration not stated),1.22 µM
22,Cc1cc(Sc2nnc(/N=C/N(C)C)s2)c2ccccc2n1,> 38 µM (inactive)

row,SMILES,AC50
1,O=C(CCl)Nc1cn(-c2ccccc2)nc1-c1ccc(F)cc1,2.82 µM
2,CC(=O)N1CCC2(CC1)C(C#N)=C(N)Oc1n[nH]c(C)c12,> 38 µM (inactive)
3,Cc1ccc(Cn2ncc(Cl)c(Cl)c2=O)cc1,22 µM
4,Cc1cccc(CS(=O)(=O)c2ncc(Cl)c(C(=O)Nc3c(C)cccc3C)n2)c1,> 38 µM (inactive)
5,COc1ccc2noc3c2c1C(=O)c1ccccc1-3,24.8 µM
6,Cc1cc(C)cc(Cn2ncc(Cl)c(Cl)c2=O)c1,1.38 µM
7,CCCCCCCCCCOC(=O)Cn1c(COc2cccc(C)c2)[n+](C)c2ccccc21,7.35 µM
8,O=C(N/N=C/c1c(O)n(C2CCCCC2)c(=S)[nH]c1=O)c1ccccc1O,4.36 µM
9,O=C(c1ccco1)N1CCN(c2nc(C3CC3)nc3sc4c(c23)CCCC4)CC1,12.7 µM
10,O=[N+]([O-])c1ccc(Sc2nnnn2-c2ccccc2)nc1,> 38 µM (inactive)
11,O=C1CCCC2=C1C(c1ccc3c(c1)OCO3)c1c([nH]n(-c3ccccc3)c1=O)N2 (configuration not stated),6.7 µM
12,O=C1C=Cc2ccccc2C1=O,14.9 µM
13,O=c1[nH]cc(O)c(=O)[nH]1,7.38 µM
14,COc1cccc(NC2=C(Cl)C(=O)OC2OC(=O)c2ccco2)c1 (configuration not stated),> 38 µM (inactive)
15,COc1ccc(-c2csc(Nc3ccc(O)cc3)n2)cc1,> 38 µM (inactive)
16,COc1cc(C2C(C#N)=C(N)Oc3n[nH]c(C)c32)ccc1OC(=O)c1ccccc1 (configuration not stated),> 38 µM (inactive)
17,CCc1ccc(S(=O)(=O)Nc2ccc(O)c3ccccc23)cc1,0.535 µM
18,CCCCCCOC(=O)c1ccc(OC(=O)c2cccnc2)cc1,> 38 µM (inactive)
19,Cc1ccccc1NC1=C(Cl)C(=O)OC1OC(=O)c1ccco1 (configuration not stated),> 38 µM (inactive)
